Experimental data taken from patent publication US20250057748A1, “FORMULATIONS OF DIHYDROKAEMPFEROL” (DEBUT BIOTECHNOLOGY, INC., priority 2023, published 2025).

Columns and labels:
[1] = Solubility of dihydrokaempferol in various solvents; type: physicochemical
From the text: Table 1, provided below, provides solubility data for dihydrokaempferol in various solvents.

[2] = Dihydrokaempferol stability at 70° C. in various solvents; type: physicochemical
Protocol: Table 2, provided below, provides stability data for compositions comprising dihydrokaempferol in various solvents, when stored at 70° C. for up to one (1) month.

[3] = ABTS antioxidant assay (aqueous medium); type: biochemical
From the text: The 2,2′-Azinobis [3-ethylbenzothiazoline-6-sulfonic acid]-diammonium salt (ABTS) antioxidant assay is designed to evaluate the antioxidant activity of compositions comprising dihydrokaempferol in an aqueous medium.
ABTS+ solution is generated as a free radical and used to measure relative ability of a compound to scavenge free radicals. Reduction of the absorbance at 734 nm was standardized to solvent control as an indication of ABTS+ scavenging.

[4] = DPPH antioxidant activity assay (organic medium); type: biochemical
From the text: The 2,2-diphenyl-1-picrylhydrazyl (DPPH) antioxidant assay is designed to evaluate the antioxidant activity of compositions comprising dihydrokaempferol in an organic medium. 2,2-diphenyl-1-picrylhydrazyl (DPPH) is a stable free radical used to evaluate free radical scavenging capacity of a material. In the presence of an antioxidant DPPH is reduced, resulting in the formation of a colorless solution. Reduction of absorbance at 517 nm is standardized to solvent control as an indication of DPPH scavenging.

[5] = molecular target: T1, human neutrophil elastase (Homo sapiens, UniProt P08246); experiment: Elastase enzyme inhibition; type: biochemical
T1 sequence (P08246 30-267): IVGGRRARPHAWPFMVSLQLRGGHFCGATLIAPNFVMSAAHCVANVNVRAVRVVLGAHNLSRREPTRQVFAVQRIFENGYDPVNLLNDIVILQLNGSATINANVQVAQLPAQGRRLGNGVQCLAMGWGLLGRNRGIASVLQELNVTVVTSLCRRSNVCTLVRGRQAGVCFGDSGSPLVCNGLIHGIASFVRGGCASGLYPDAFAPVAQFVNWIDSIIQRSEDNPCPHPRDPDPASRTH
Protocol: The assay was conducted to evaluate the elastase enzyme inhibition activity of compositions comprising dihydrokaempferol.
Neutrophil infiltration and neutrophil elastase are both increased in the skin in response to UV stress. […] Therefore, inhibition of this enzyme, particularly in combination with antioxidant activity, is effective in delaying wrinkle development and aiding in maintaining skin integrity. This assay is measures release of 4-nitroaniline from an Me-Suc-Ala-Ala-Pro-Val-pNA by human neutrophil elastase and can be quantified at 405 nm by comparing to solvent control.

glycation = experiment: Glycation inhibition assay; type: biochemical
Protocol: The assay was conducted to evaluate the glycation inhibition activity of compositions comprising dihydrokaempferol.
Nonenzymatic glycation can occur when glucose reacts with proteins, forming a Schiff base intermediate that subsequently undergoes Amadori rearrangement to form glycosylated proteins, when they react with skin proteins to form Advanced Glycation End products (AGE). AGE formation can result in loss of skin elasticity and impaired cellular function. The glycation inhibition ability of a compound is measured by change in fluorescence at excitation/emission of 360 nm/420 nm relative to solvent control.

IL-6 = experiment: Anti-inflammatory activity: IL-6 ELISA in LPS/Poly:IC stressed keratinocytes; type: cell-based, Human; conditions: for % Reduction vs Treated / IL-6: stimulated NHEK, 24 hours
Protocol: Normal Human Epidermal Keratinocytes (NHEK) were stressed with a cocktail of lipopolysaccharide (LPS) and Polyinosinic-polycytidylic acid sodium salt (Poly:IC), external aggressors capable of inducing an inflammatory response. Stressed cells were subsequently treated with test articles and incubated for 24 hours. Reduction in inflammatory markers was measured by ELISA and % reduction calculated relative to solvent control.

Filaggrin = experiment: Skin barrier marker by flow cytometry in hDF; type: cell-based, Human; conditions: 0.003% DHK
Protocol: (§1) Human dermal fibroblasts (hDF) were treated with test article of interest. Barrier markers of interest were measured by flow cytometry.

Loricrin = experiment: Skin barrier marker by flow cytometry in hDF; type: cell-based, Human; conditions: 0.003% DHK
Protocol: as §1

[6] = test system: Human dermal fibroblasts (hDF); experiment: Wound healing: fibroblast regrowth after insert removal, image analysis; type: cell-based; conditions: 0.003% DHK
Protocol: Human dermal fibroblasts (hDF) were plated in the presence of a growth-preventing insert. The insert was subsequently removed and regrowth measured by image analysis.

Elastin = experiment: Anti-aging: elastin ELISA in hDF; type: cell-based, Human
Protocol: Human dermal fibroblasts (hDF) were treated with test article of interest. Elastin was quantified by ELISA.

[7] = test system: C-X-C Motif Chemokine Ligand 1 (CXCL1); experiment: Differential gene expression in keratinocytes; type: cell-based; conditions: normal human epidermal keratinocytes, 1% DHK
From the text: (§2) Log 2fold changes are detailed in FIG. 4. Table 13, provided below, highlights certain examples of differential gene expression in normal human epidermal keratinocytes treated with compositions comprising 1% DHK.

[8] = test system: C-X-C Motif Chemokine Ligand 2 (CXCL2); experiment: Differential gene expression in keratinocytes; type: cell-based; conditions: normal human epidermal keratinocytes, 1% DHK
From the text: as §2

[9] = test system: Fibroblast Growth Factor 2 (FGF2); experiment: Differential gene expression in keratinocytes; type: cell-based; conditions: normal human epidermal keratinocytes, 1% DHK
From the text: as §2

Interleukin 24 (IL24) = experiment: Differential gene expression in keratinocytes; type: cell-based; conditions: normal human epidermal keratinocytes, 1% DHK
From the text: as §2

Interleukin 6 (IL6) = experiment: Differential gene expression in keratinocytes; type: cell-based; conditions: normal human epidermal keratinocytes, 1% DHK
From the text: as §2

Thrombospondin 4 (THBS4) = experiment: Differential gene expression in keratinocytes; type: cell-based; conditions: normal human epidermal keratinocytes, 1% DHK
From the text: as §2

[10] = test system: Transient Receptor Potential Cation Channel Subfamily (TRPV6); experiment: Differential gene expression in keratinocytes; type: cell-based; conditions: normal human epidermal keratinocytes, 1% DHK
From the text: as §2

[11] = test system: Tumor Necrosis Factor (TNF); experiment: Differential gene expression in keratinocytes; type: cell-based; conditions: normal human epidermal keratinocytes, 1% DHK
From the text: as §2

[12] = test system: Vascular Endothelial Growth Factor A (VEGFA); experiment: Differential gene expression in keratinocytes; type: cell-based; conditions: normal human epidermal keratinocytes, 1% DHK
From the text: as §2

macrophage cell lines = macrophage cell lines and skin; Venditti et al. 2013; Lee et al. 2013; cited from earlier work
[13] = Venditti et al. 2013; Liang et al. 2020; cited from earlier work
[14] = Venditti et al. 2013; Liang et al. 2020; cited from earlier work; remark: listed apart in the source
[15] = mice; Liang et al. 2020; cited from earlier work
Sirtuin-1 = conditions: reduces oxidative stress and inflammatory response; Zhang et al. 2021; cited from earlier work
PPAR-72 = conditions: stimulates glucose uptake; Zhang et al. 2011; cited from earlier work
[16] = Isopropyl lauroyl sarcosinate, 1 month
[17] = Isopropyl lauroyl sarcosinate, 1 week

Solubility (% w/w) ([1]; Solvent: 1,2 Propanediol): 0.00 % w/w
Solubility (% w/w) ([1]; Solvent: 1,2 heptanediol): 5.00 % w/w
Solubility (% w/w) ([1]; Solvent: 3-methyl-1,3-butanediol): 0.00 % w/w
Solubility (% w/w) ([1]; Solvent: Butylene glycol): 5.00 % w/w
Solubility (% w/w) ([1]; Solvent: C9-12 Alkane): 0.00 % w/w
Solubility (% w/w) ([1]; Solvent: C15-19 Alkane): 0.00 % w/w
Solubility (% w/w) ([1]; Solvent: Capric/Caprylic Triglyceride): 0.00 % w/w
Solubility (% w/w) ([1]; Solvent: Di(propylene glycol) dibenzoate): 0.00 % w/w
Solubility (% w/w) ([1]; Solvent: Dimethyl Isosoribide): 20.00 % w/w
Solubility (% w/w) ([1]; Solvent: Ethoxydiglycol): 25.00 % w/w
Solubility (% w/w) ([1]; Solvent: Isoamyl Laurate): 0.00 % w/w
Solubility (% w/w) ([1]; Solvent: Isopentyldiol): 5.00 % w/w
Solubility (% w/w) ([1]; Solvent: Isopropyl Lauroyl sarcosinate): 10.00 % w/w
Solubility (% w/w) ([1]; Solvent: Isopropyl Myristate): 0.00 % w/w
Solubility (% w/w) ([1]; Solvent: Jojoba Oil): 0.00 % w/w
Solubility (% w/w) ([1]; Solvent: Neopentyl Glycol Dihexanoate): 0.00 % w/w
Solubility (% w/w) ([1]; Solvent: Oleyl Alcohol): 0.00 % w/w
Solubility (% w/w) ([1]; Solvent: Pentylene glycol): 5.00 % w/w
Solubility (% w/w) ([1]; Solvent: Phenylpropanol): 0.00 % w/w
Solubility (% w/w) ([1]; Solvent: Propanediol): 5.00 % w/w
Solubility (% w/w) ([1]; Solvent: Squalene): 0.00 % w/w
Solubility (% w/w) ([1]; Solvent: Sunflower Oil): 0.00 % w/w
Solubility (% w/w) ([1]; Solvent: Tri C12-13 alkyl citrate): 0.00 % w/w
Solubility (% w/w) ([1]; Solvent: Tributyl citrate): 0.00 % w/w
Solubility (% w/w) ([1]; Solvent: Tributyl-O-acetylcitrate): 0.00 % w/w
Solubility (% w/w) ([1]; Solvent: Triethyl Citrate): 0.00 % w/w
Solubility (% w/w) ([1]; Solvent: Triethyl-O-acetylcitrate): 0.00 % w/w
Solubility (% w/w) ([1]; Solvent: Triisostearin): 0.00 % w/w
Solubility in words ([1]; in Helianthus Annuus (Sunflower) Seed Oil): insoluble
Solubility in words ([1]; in a number of other commonly used solvents): minimally soluble
Solubility in words ([1]; in capric/caprylic triglyceride): minimally soluble
Solubility in words ([1]; in dimethyl isosorbide, ethoxydiglycol, glycol, isopropyl lauroyl sarcosinate, pentylene glycol, 1,2 hexanediol, propanediol, butylene glycol, phenylpropanol, isopentyldiol, 1,2 heptanediol): soluble
Solubility in words ([1]; in isopropyl myristate): minimally soluble
Solubility in words ([1]; in oil): poorly soluble or insoluble
Solubility in words ([1]; in water): poorly soluble or insoluble
% remaining ([2]; Dimethyl isosorbide, 1 month): 91%
Concentration (% w/w) 1 month ([2]; Dimethyl isosorbide, 1 month): 6.04 % w/w
% remaining ([2]; Dimethyl isosorbide, 1 week): 95%
Concentration (% w/w) 1 week ([2]; Dimethyl isosorbide, 1 week): 6.33 % w/w
Concentration (% w/w) Initial ([2]; Dimethyl isosorbide): 6.66 % w/w
% remaining ([2]; Ethoxydiglycol, 1 month): 84%
Concentration (% w/w) 1 month ([2]; Ethoxydiglycol, 1 month): 6.54 % w/w
% remaining ([2]; Ethoxydiglycol, 1 week): 94%
Concentration (% w/w) 1 week ([2]; Ethoxydiglycol, 1 week): 7.27 % w/w
Concentration (% w/w) Initial ([2]; Ethoxydiglycol): 7.74 % w/w
% remaining [2, 16]: 92%
Concentration (% w/w) 1 month [2, 16]: 7.71 % w/w
% remaining [2, 17]: 97%
Concentration (% w/w) 1 week [2, 17]: 8.14 % w/w
Concentration (% w/w) Initial ([2]; Isopropyl lauroyl sarcosinate): 8.40 % w/w
IC50 antioxidant activity ([3]; ABTS, aqueous solvent system, calculated): 0.0143 % w/w
IC50 antioxidant activity ([4]; DPPH, organic solvent system, calculated): 0.05 % w/w
Lowest concentration inhibiting elastase enzyme activity [5]: 0.1 % w/w
inhibition at 0.02 % strength ([5]; 0.020 % w/w): 0%
inhibition at 0.1 % strength ([5]; 0.100 % w/w): 29.6%
inhibition at 0.5 % strength ([5]; 0.500 % w/w): 81.5%
IC50 elastase enzyme inhibition ([5]; calculated): 0.13 % w/w
IC50 glycation inhibition (glycation; calculated): 0.016 % w/w
SMILES: O=C1c2c(O)cc(O)cc2O[C@H](c2ccc(O)cc2)[C@H]1O [dihydrokaempferol]
% Radical Inhibition ([3]; ABTS, 0.00625 % w/w): 32.55%
% Radical Inhibition ([3]; ABTS, 0.0125 % w/w): 42.49%
% Radical Inhibition ([3]; ABTS, 0.025 % w/w): 56.17%
Lowest concentration with antioxidant activity ([3]; aqueous systems): 0.00625 % w/w
% Radical Inhibition ([4]; DPPH, 0.016 % w/w): 16.54%
% Radical Inhibition ([4]; DPPH, 0.031 % w/w): 31.00%
% Radical Inhibition ([4]; DPPH, 0.063 % w/w): 61.12%
Lowest concentration with antioxidant activity ([4]; organic solvent systems): 0.016 % w/w
Lowest concentration inhibiting glycation (glycation): 0.004 % w/w
% Glycation Inhibition (glycation; 0.004 % w/w): 25.05%
% Glycation Inhibition (glycation; 0.011 % w/w): 42.23%
% Glycation Inhibition (glycation; 0.033 % w/w): 64.87%
% Glycation Inhibition (glycation; 0.100 % w/w): 82.42%
% Reduction vs Treated (IL-6; 0.001% DHK): 31.32%
IL-6 (IL-6; 0.001% DHK): 838.7 pg/mL
% Reduction vs Treated (IL-6; 0.002% DHK): 43.70%
IL-6 (IL-6; 0.002% DHK): 687.5 pg/mL
% Reduction vs Treated (IL-6; 0.003% DHK): 64.79%
IL-6 (IL-6; 0.003% DHK): 430.0 pg/mL
Reduction of inflammatory marker IL-6 (up to) (IL-6; in vitro, summary of Table 9): up to 64.79%
% Total Population (Filaggrin): 42.2%
% Total Population (Loricrin): 19.3%
Closure Rate 24 hr ([6]; 24 hr): 4.17
Closure Rate 48 hr ([6]; 48 hr): 9.40
Elastin (Elastin; 0.001% DHK): 23.1 ng/mL
Elastin (Elastin; 0.003% DHK): 16.6 ng/mL
Elastin (Elastin; 0.005% DHK): 15.9 ng/mL
Log2 Fold Change [7]: −1.91
Log2 Fold Change [8]: −4.19
Log2 Fold Change [9]: 1.82
Log2 Fold Change (Interleukin 24 (IL24)): −2.01
Log2 Fold Change (Interleukin 6 (IL6)): −5.54
Log2 Fold Change (Thrombospondin 4 (THBS4)): 3.30
Log2 Fold Change [10]: 2.19
Log2 Fold Change [11]: −3.39
Log2 Fold Change [12]: 2.32
Anti-inflammatory activity (macrophage cell lines): anti-inflammatory activity
Function as antioxidant [13]: antioxidant
Function as anti-diabetic [14]: anti-diabetic
Treatment of severe acute pancreatitis [15]: treatment for severe acute pancreatitis
Effect on Sirtuin-1 (Sirtuin-1): upregulates
Effect on PPAR-72 expression (PPAR-72): increases
